In US10428043B2, “Green oxidation catalytic system” (TRUSTEES OF BOSTON UNIVERSITY, priority 2014, dated 2019):
Values joined by “and” are separate entries in the source; they are usually repeats but may differ in a detail not shown here. Identical values can stand only once. Like-named read-outs stand apart in the source and are kept apart here.

Experiments:
[1] = Cyclic voltammetry, redox potentials; format: physicochemical
Text: All reagents and solvents used were purchased from commercial sources and used as received unless otherwise noted. Prior to use, methanol (Pharmco-Aaper) was distilled over magnesium metal, dimethyl sulfoxide (Fisher Scientific) was distilled over calcium hydride, triethylamine was distilled over sodium metal and unstabilized dichloromethane (Fisher Scientific) was distilled over calcium hydride. Ferrocene was purified by sublimation for use as a reference for electrochemical analyses. All manipulations involving ferrous complexes were carried out in an inert atmosphere glovebox (M. Braun, Stratham, N.H.) with distilled and thoroughly degassed solvents. UV/Vis spectra were collected using a Hewlett Packard Spectrometer (8453). IR spectra were collected using a Thermo Nicolet AVATAR 330-FT-IR. Cyclic voltammetry experiments were performed using a Princeton Applied Research model 273 potentiostat with a glassy carbon working electrode, a silver wire reference electrode and a platinum wire counter electrode. Electron Paramagnetic Resonance (EPR) spectra were collected on a Bruker ESP-300E spectrometer operating at 9.460 GHz. NMR spectra were recorded at 25° C. using a Varian spectrometer operating at 400 MHz with all chemical shifts referenced to SiMe4. Iron concentrations were determined using a Varian AA240Z Atomic Absorption Spectrometer.
Cyclic voltammetry was performed inside an inert atmosphere (N2) box, with degassed DMSO as the solvent and tetra-N-butylammonium hexafluorophosphate as the supporting electrolyte (0.2M). The ferrocenium/ferrocene couple was used as an internal reference; reduction potential values were corrected by assigning the ferrocenium/ferrocene couple to 0.64 V versus NHE (Zanello, P. Inorganic Electrochemistry; The Royal Society of Chemistry: Cambridge, 2003). Chloride titration experiments were performed by collecting CV data after the addition of one and two 50 μL aliquots of 204 mM [NEt4][Cl] to 3.0 mL of 3.4 mM [Fe^II(N2O1py)(Cl)2]^− (concentration determined using flame atomic absorption spectroscopy) and correcting the potential with reference to the ferrocenium/ferrocene couple.
It should be noted that these redox potentials were determined in the absence of excess halide, and further CV studies will be performed in the presence of excess halide for all derivatives of the N2O1py system.

[2] = 20° C., stopped-flow with laser flash photolysis; cited from earlier work
[3] = estimated value for the functional group; cited from earlier work
[4] = Catalytic oxidation of methanol to formaldehyde with α-KG and O2 (Nash assay); settings: Methanol; for TON: product Formaldehyde
[5] = Reactivity with α-KG, O2 and cyclooctane (GC-MS); settings: Cyclooctane
Experimental: (§1) Reactivity Studies. […] (10-20 mM).

[6] = Reactivity with α-KG, O2 and 2,4-di-tert-butyl phenol (GC-FID); settings: O2, [Fe] 9.6 μM
Experimental: as §1

[7] = Reactivity with α-KG, O2 and 9,10-dihydroanthracene (GC-FID); settings: O2, [Fe] 10.1 μM
Experimental: as §1
(17) with α-KG, 02, and 9,10-dihydroanthracene.

[8] = Room temperature O2 reactivity of ferrous complexes followed by UV/vis; settings: methanol
Experimental: The solution was transferred to an anaerobic UV/vis cell and sealed. An initial spectrum was obtained of the ferrous complex, and then the solution was exposed to the air. Spectra were recorded every minute for the first two minutes and then every 5-30 minutes after that for seven hours. The absorbance was monitored at 350 nm to follow formation of the oxidized complex.
This solution was then transferred to an anaerobic UV/vis cell and sealed. An initial spectrum was obtained of the ferrous complex, and then the solution was exposed to the air. Spectra were collected every minute for the first 30 minutes and then every 5-20 minutes after that for 2 hours. The absorbance was monitored at 315 nm to follow formation of the oxidized complex.

[9] = cited from earlier work
[10] = Reactivity with α-KG, O2 and cyclohexene (GC); settings: Cyclohexene
[11] = Low-temperature stopped-flow kinetics of binding of α-KG to 17; settings: 17 + α-KG
[12] = Low-temperature stopped-flow kinetics of binding of p-CH3-BF to 17; settings: 17 + p-CH3-BF
[13] = Low-temperature stopped-flow kinetics of adduct complexes with dioxygen; settings: complex 0.94-1.1 mM, O2 5 mM, methanol, −85° C.
Experimental: Stopped-flow Spectroscopy and Data analysis.
Kinetic studies of [Fe^II(N2O1)(α-KG)(CH3OH)]^− and [Fe^II(N2O1)(p-X-BF)(CH3OH)]^− adduct complexes with dioxygen. Low-temperature stopped flow studies of this reaction were performed.
Order dependence analysis.
The kinetic model was built by starting from simple two- and three-exponential processes.
Stoichiometry of the equations for the proposed model in FIG. 29: […]

[14] = DMSO, glassy carbon working electrode, absence of excess halide
[15] = calculated from redox potentials for the one-electron transfer between iron and dioxygen

C#Cc1ccnc(CN(C)CC(=O)[O-])c1.CC[NH+](CC)CC.CO.[Cl-].[Cl-].[Fe+2] [[Fe^II(N2O1py-alkyne)], [C6H16N][Fe^II(N2O1-alkyne)(MeOH)(Cl)2]]
E1/2 [1, 14]: 270 mV

N#C[N-]C#N.N#C[N-]C#N.N#C[N-]C#N.N#C[N-]C#N.N#C[N-]C#N.[Cl-].[Fe+2] [[Fe^II(dca)5Cl]^4−]
second order rate constant k of NO binding [2]: 1.7e+07 M⁻¹ s⁻¹

CN(CC(=O)O)Cc1ccccn1 [[H2N2O1py]^+, 2-(methyl(pyridine-1-ium-2-ylmethyl)ammonio)acetate]
estimated pKa, carboxylic acid [3]: ~4.8
estimated pKa, pyridinium [3]: ~5.2
estimated pKa, tertiary ammonium [3]: ~10

CN(C)CCN(C)CC(=O)[O-].[Cl-].[Cl-].[Fe+2].[Na+] [compound 17, [Fe^II(N2O1)Cl2][Na]]
Total TON ([4]; O2, [Fe] 1.0 μM): 285
TON ([4]; O2, [Fe] 1.0 μM): 285
Total TON ([4]; O2, [Fe] 6.2 μM): 54
TON ([4]; O2, [Fe] 6.2 μM): 54
Total TON ([4]; O2, [Fe] 8.0 μM): 36
TON ([4]; O2, [Fe] 8.0 μM): 36
Total TON ([4]; O2, [Fe] 12.5 μM): 22
TON ([4]; O2, [Fe] 12.5 μM): 22
Total TON ([4]; O2, [Fe] 100 μM): 3.5
TON ([4]; O2, [Fe] 100 μM): 3.5
Total TON ([4]; O2, [Fe] 200 μM): 2.1
TON ([4]; O2, [Fe] 200 μM): 2.1
Total TON ([4]; O2, [Fe] 300 μM): 1.3
TON ([4]; O2, [Fe] 300 μM): 1.3
Total TON ([4]; O2, [Fe] 500 μM): 0.82
TON ([4]; O2, [Fe] 500 μM): 0.82
Total TON ([4]; O2, [Fe] 2500 μM): 0.46
TON ([4]; O2, [Fe] 2500 μM): 0.46
Total TON ([4]; O2, [Fe] 5000 μM): 0.39
TON ([4]; O2, [Fe] 5000 μM): 0.39
Total TON ([5]; Air, [Fe] 1.1 μM): 317
TON ([5]; Air, [Fe] 1.1 μM, product Cyclooctanol): 189
TON ([5]; Air, [Fe] 1.1 μM, product Cyclooctanone): 64
Total TON ([5]; O2, [Fe] 1.1 μM): 305
TON ([5]; O2, [Fe] 1.1 μM, product Cyclooctanol): 182
TON ([5]; O2, [Fe] 1.1 μM, product Cyclooctanone): 62
Total TON ([5]; O2, [Fe] 9.7 μM): 40
TON ([5]; O2, [Fe] 9.7 μM, product Cyclooctanol): 24
TON ([5]; O2, [Fe] 9.7 μM, product Cyclooctanone): 7.8
Total TON [6]: 619
TON ([6]; product 3,3′-5,5′-terta-t-butyl-2,2′-dihydroxybiphenyl): 619
Total TON [7]: 128
TON ([7]; product Anthracene): 54
TON ([7]; product Anthraquinone): 26
TON ([7]; product Anthrone): 21
E1/2 [1, 14]: 159 mV
Keq [1, 15]: 1.1 × 10^−8
ΔG° [1, 15]: 45 kJ
E1/2 ([1]; no added halide, in mV): +159
time for formation of the diferric oxo-bridged product on reaction with O2 [8]: ~6 h
solubility ([9]; DMF and DMSO): only slightly soluble
solubility ([9]; other common polar and nonpolar aprotic solvents, including CH3CN, CH2Cl2, THF, Et2O, toluene and ethyl acetate): insoluble
solubility ([9]; protic solvents): soluble
Total TON ([10]; O2, [Fe] 9.6 μM): 520
Total TON ([10]; O2, [Fe] 9.6 μM + TEMPO): 414
TON ([10]; O2, [Fe] 9.6 μM + TEMPO (6 × 10^4 excess), product Cyclohexene oxide): 53
TON ([10]; O2, [Fe] 9.6 μM + TEMPO, product 2-Cyclohexen-1-ol): 240
TON ([10]; O2, [Fe] 9.6 μM + TEMPO, product 2-Cyclohexen-1-one): 60
TON ([10]; O2, [Fe] 9.6 μM, product 2-Cyclohexen-1-ol): 249
TON ([10]; O2, [Fe] 9.6 μM, product 2-Cyclohexen-1-one): 70
TON ([10]; O2, [Fe] 9.6 μM, product Cyclohexene oxide): 132
k15 ([11]; methanol, −85° C.): 9.6 M⁻¹ s⁻¹ and 10 ± 0.2 M⁻¹ s⁻¹
k16 ([11]; methanol, −85° C.): 1.7 s⁻¹ and 1.7 ± 0.5 s⁻¹
k17 ([11]; methanol, −85° C.): 0.53 s⁻¹ and 0.5 ± 0.1 s⁻¹
ΔH^‡ of k15 ([11]; −85 to −70° C.): 8.6 ± 0.48 kcal/mol
ΔH^‡ of k16 ([11]; −85 to −70° C.): 12 ± 1.2 kcal/mol
ΔH^‡ of k17 ([11]; −85 to −70° C.): 11.2 ± 1.4 kcal/mol
ΔS^‡ of k16 ([11]; −85 to −70° C.): 31.3±23 J mol^−1 K^−1 and 31 ± 23 J mol^−1 K^−1
ΔS^‡ of k17 ([11]; −85 to −70° C.): 3 ± 1 J mol^−1 K^−1
k15 ([12]; methanol, −85° C.): 45.3 M⁻¹ s⁻¹ and 45 ± 5 M⁻¹ s⁻¹
k16 ([12]; methanol, −85° C.): 12 ± 1 s⁻¹
k17 ([12]; methanol, −85° C.): 1.2 ± 0.1 s⁻¹
ΔH^‡ of k15 ([12]; −85 to −70° C.): 8.37 ± 0.48 kcal/mol
ΔH^‡ of k16 ([12]; −85 to −70° C.): 10 ± 2.2 kcal/mol
ΔH^‡ of k17 ([12]; −85 to −70° C.): 9.08 ± 0.24 kcal/mol
ΔS^‡ of k16 ([12]; −85 to −70° C.): 1.5 ± 0.9 J mol^−1 K^−1
ΔS^‡ of k17 ([12]; −85 to −70° C.): 36.9±15 J mol^−1 K^−1 and 37 ± 15 J mol^−1 K^−1

CN(C)CCN(C)CC(=O)[O-].CO.N#Cc1ccc(C(=O)C(=O)[O-])cc1.[Fe+2] [compound 25, [Fe^II(N2O1)(p-CN-BF)(CH3OH)]]
k′1 [13]: 8.7 ± 1.2 s⁻¹
k′2 [13]: 140 ± 12 M⁻¹ s⁻¹
k′3 [13]: 60 ± 5 s⁻¹
k′4 (k′4obs) [13]: 0.2 ± 0.02 s⁻¹

CN(C)CCN(C)CC(=O)[O-].CO.Nc1ccc(C(=O)C(=O)[O-])cc1.[Fe+2] [compound 26, [Fe^II(N2O1)(p-NH2-BF)(CH3OH)]]
k′1 [13]: 8.5 ± 1.8 s⁻¹
k′2 [13]: 2700 ± 300 M⁻¹ s⁻¹
k′3 [13]: 1.0 ± 0.2 s⁻¹
k′4 (k′4obs) [13]: 1.7 ± 0.4 s⁻¹
